“And” between values parts separate entries of the source, which are not always exact repeats. Equal values may be shown once.
Columns and labels:
ECHSS = test: Example V post-emergence field trials in direct-seeded rice; format: in vivo, multiple Echinochloa species; conditions: foliar, field trial Italy
Method: Multiple field trials were conducted under commercial grower field conditions in Tolima, Colombia; Thessaloniki, Greece; Bianze and Copiano, Italy; and Humphrey, Ark., USA. Trials sites were located in commercially grown fields of direct-seeded rice (Oryza sativa) using standard herbicide small plot research methodology. Plots varied from 2 to 3 meter (m)×5 to 8 m (width×length) with 4 replicates per treatment. The rice crop was grown using normal cultural practices for fertilization, seeding, watering, flooding and maintenance to ensure good growth of the crop and the weeds.
All treatments in the field trials were applied using a backpack compressed air/gas sprayer with flat fan nozzles (80° or 110°) calibrated to apply 187 to 300 L/ha spray volume at approximately 200-400 kPa nozzle pressure. Commercially available products of cyhalofop-butyl (Clincher 180EC, Clincher 200EC, and Clincher SF (285 gr ai/L EC)) were mixed in water at appropriate formulated product rates to achieve the desired rates based on a unit area of application (hectare) to achieve the desired rates as shown. Treatments were rate at 19 to 58 days after application (DAA) as compared to the untreated control plants. Visual weed control was scored on a scale of 0 to 100 percent where 0 corresponds to no injury and 100 corresponds to complete kill. […]

ECHCG = test: Example V (second) postemergence foliar-applied ternary mixtures, greenhouse, direct seeded rice weeds; format: in vivo, Echinochloa crus-galli (L.) Beauv.
Procedure, shortened: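 Compound A (SC, acid equivalent), an ACCase inhibitor and a third herbicide were sprayed alone and as ternary mixtures postemergence at 187 L/ha with 1.25% v/v crop oil concentrate on greenhouse plants at the 1st–4th true leaf stage (29/26 °C day/night, ~14 h photoperiod). Injury was scored visually at ~3 weeks (0–100%) against untreated plants, and Colby's equation gave the expected mixture effects.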

ECHCO = test: as above; format: in vivo, Echinochloa colona (L.) Link
Method: The treated plants and control plants were placed in a greenhouse as described above and watered by sub-irrigation to prevent wash-off of the test compounds. After approximately 3 weeks, the condition of the test plants as compared with that of the untreated plants was determined visually and scored on a scale of 0 to 100 percent where 0 corresponds to no injury or growth inhibition and 100 corresponds to complete kill.
Colby's equation was used to determine the herbicidal effects expected from the mixtures (Colby, S. R. 1967. Calculation of the synergistic and antagonistic response of herbicide combinations. Weeds 15:20-22.).
The following equation was used to calculate the expected activity of mixtures containing three active ingredients, A, B, and C: Expected=A+B+C−((A×B+A×C+B×C)/100)+(A×B×C/10000)

SMILES	Visual Weed Control (%) - 55-58 DAA ECHSS Obs (ECHSS; 300 gai/ha)	Visual Weed Control (%) - 21 DAA ECHCG Obs (ECHCG; 17.5 gai/ha)	Visual Weed Control (%) - 22 DAA ECHCG Obs (ECHCG; 17.5 gai/ha)	Visual Weed Control (%) - 21 DAA ECHCG Obs (ECHCG; 35 gai/ha)	Visual Weed Control (%) - 22 DAA ECHCG Obs (ECHCG; 35 gai/ha)	Visual Weed Control (%) - 21 DAA ECHCO Obs (ECHCO; 35 gai/ha)	Visual Weed Control (%) - 55-58 DAA ECHSS Obs (ECHSS; 24 gae/ha)	Visual Weed Control (%) - 21 DAA ECHCG Obs (ECHCG; 2.19 gae/ha)	Visual Weed Control (%) - 21 DAA ECHCG Obs (ECHCG; 4.38 gae/ha)	Visual Weed Control (%) - 21 DAA ECHCG Obs (ECHCG; 8 gae/ha)	Visual Weed Control (%) - 22 DAA ECHCG Obs (ECHCG; 8 gae/ha)	Visual Weed Control (%) - 22 DAA ECHCG Obs (ECHCG; 16 gae/ha)	Visual Weed Control (%) - 21 DAA ECHCO Obs (ECHCO; 2.19 gae/ha)	Visual Weed Control (%) - 21 DAA ECHCO Obs (ECHCO; 4.38 gae/ha)	Visual Weed Control (%) - 21 DAA ECHCO Obs (ECHCO; 8 gae/ha)
CCCCOC(=O)[C@@H](C)Oc1ccc(Oc2ccc(C#N)cc2F)cc1 [Cyhalofop-butyl, butyl(2R)-2-[4-(4-cyano-2-fluorophenoxy)phenoxy]propanoate, reference compound]	37%	33%	0%	20%	12%	37% and 40%	–	–	–	–	–	–	–	–	–
COc1c(Cl)ccc(-c2nc(C(=O)OCc3ccccc3)c(Cl)c(N)c2F)c1F [Compound A Benzyl Ester, benzyl ester of 4-amino-3-chloro-5-fluoro-6-(4-chloro-2-fluoro-3-methoxy-phenyl)pyridine-2-carboxylic acid]	–	–	–	–	–	–	40%	5%	27%	38% and 45%	40%	58%	10%	25%	45%
